Where two headings read alike, the source gives them in different places.
What was measured:
Tyrosinase = assay: RNA extraction and quantitative PCR assay, tyrosinase expression; format: cell-based; details: B6F10 melanocytes, α-MSH plus carvone, vs α-MSH control cells
Description: (§1) B6F10 melanocytes were cultured in DMEM containing 10% FBS at 37° C. under 5% CO2, and then the cells were dispensed into a 6-well plate at a density of 1×10^5 cells/well and attached thereto. As normal cells, cells not treated with α-MSH that induces melanogenesis were used, and as control cells, cells treated with α-MSH (100 nM) were used. The cells cultured under the above conditions were treated with α-MSH (100 nM) plus carvone (100 μM) and cultured for 48 hours. […] Using the cDNA obtained through reverse transcription as a template and using the [NT] flanking sequences of the gene cDNA to be amplified as primers, quantitative PCR was performed using iQ SYBR green supermix (Bio-Rad) and CFX ConnectTM Real-Time PCR Detection System (Bio-Rad). [table]

[1] = tested on: MITF (microphthalmia transcription factor); assay: RNA extraction and quantitative PCR assay, MITF expression; format: cell-based; details: B6F10 melanocytes, α-MSH plus carvone, vs α-MSH control cells
Description: as §1

[2] = oral, rats; cited from earlier work
[3] = in water and ethanol; cited from earlier work
B6F10 melanocytes = assay: Measurement of melanin production in cells (α-MSH-induced melanogenesis); format: cell-based; details: α-MSH (100 nM) plus carvone (100 μM), 48 hours
Description: B16F10 melanocytes were purchased from ATCC (Manassas, Va., USA), and the purchased cells were cultured using DMEM (Dulbecco's Modified Eagle's Media) containing 10% FBS (fetal bovine serum) in an incubator at 37° C. under 5% CO2. B6F10 melanocytes were cultured in DMEM containing 10% FBS at 37° C. under 5% CO2, and then the cells were dispensed into a 6-well plate at a density of 1×10^5 cells/well and attached thereto. […] After washing twice with PBS (phosphate buffered saline), the cells were harvested. The harvested cells were centrifuged at 1,000 rpm for 5 minutes, and then the color of the pellet was visually observed. Thereafter, the cell pellet was lysed by adding 200 μL of 1N NaOH solution containing 10% DMSO, and then the absorbance at 400 nm was measured with a microplate reader.

[4] = transdermal; cited from earlier work

## C=C(C)C1CC=C(C)C(=O)C1 (stereo not shown) [carvone]
Tyrosinase
  decrease of tyrosinase expression compared to control cells: 31%
[1]
  decrease of MITF expression compared to control cells: 36%
[2]
  LD50: 1,640 mg/kg
[3]
  solubility: well soluble
B6F10 melanocytes; absorbance at 400 nm, vs α-MSH control cells
  decrease of melanin content compared to control cells: 29%
B6F10 melanocytes; compared to control cells treated with only α-MSH
  pellet color of cells, visually observed: significantly paler
[4]
  LD50: ≥ 4,000 mg/kg

— patent US20220370317A1, “COMPOSITION FOR SKIN WHITENING, COMPRISING CARVONE OR SALT THEREOF AS ACTIVE INGREDIENT” (BOTANICSENS, priority 2019, published 2022)
